According to patent publication US9695155B2, “Herbicidal substituted pyrimidinyloxy benzene compounds” (E. I. DU PONT DE NEMOURS AND COMPANY, priority 2013, dated 2017):

Experiments:
Assay in all cases: Test C preemergence
blackgrass = type: in vivo, Alopecurus myosuroides; details: Alopecurus myosuroides, pre-emergence, preemergence, scale 0 (no effect) to 100 (complete control), read-out: Blackgrass plant response rating
In short: (§1)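 Seeds were sown in loam–sand blend and sprayed preemergence, while plants at 1- to 4-leaf stage (2–18 cm) in peat-based medium received postemergence sprays; test chemicals were formulated in a non-phytotoxic solvent with surfactant. After 13–15 days in a greenhouse, injury was rated visually against controls, 0 (no effect) to 100 (complete control).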

Italian ryegrass = type: in vivo, Lolium multiflorum; details: Lolium multiflorum, pre-emergence
In short: as §1

wheat, winter = type: in vivo, Triticum aestivum; details: Triticum aestivum, pre-emergence
In short: as §1

galium = type: in vivo, Galium aparine; details: Galium, pre-emergence
In short: as §1

corn = type: in vivo, Zea mays; details: Zea mays, pre-emergence
In short: as §1

giant foxtail = type: in vivo, Setaria faberii; details: Setaria faberi, pre-emergence
In short: as §1

johnsongrass = type: in vivo, Sorghum halepense; details: Sorghum halepense, pre-emergence
In short: as §1

lambsquarters = type: in vivo, Chenopodium album; details: Chenopodium album, pre-emergence
In short: as §1

morningglory = type: in vivo, Ipomoea coccinea; details: Ipomoea, pre-emergence
In short: as §1

ragweed = type: in vivo, Ambrosia elatior; details: Ambrosia artemisiifolia, pre-emergence
In short: as §1

soybean = type: in vivo, Glycine max; details: Glycine max, pre-emergence
In short: as §1

barnyardgrass = type: in vivo, Echinochloa crus-galli; details: Echinochloa crus-galli, pre-emergence
In short: as §1

oilseed rape = type: in vivo, Brassica napus; details: Brassica napus, pre-emergence
In short: as §1

velvetleaf = type: in vivo, Abutilon theophrasti; details: Abutilon theophrasti, pre-emergence
In short: as §1

N#Cc1cccc(Oc2ncc(Cl)cn2)c1-n1cc(Br)cn1 [Compound 52, 2-(4-bromo-1H-pyrazol-1-yl)-3-[(5-chloro-2-pyrimidinyl)oxy]benzonitrile]
pest or weed control at 62 g/ha (blackgrass; 62 g ai/ha): 85% | pest or weed control at 125 g/ha (blackgrass; 125 g ai/ha): 90% | pest or weed control at 250 g/ha (blackgrass; 250 g ai/ha): 90% | pest or weed control at 62 g/ha (Italian ryegrass; 62 g ai/ha, preemergence, scale 0 (no effect) to 100 (complete control), read-out: Ryegrass, Italian plant response rating): 55% | pest or weed control at 125 g/ha (Italian ryegrass; 125 g ai/ha, preemergence, scale 0 (no effect) to 100 (complete control), read-out: Ryegrass, Italian plant response rating): 80% | pest or weed control at 250 g/ha (Italian ryegrass; 250 g ai/ha, preemergence, scale 0 (no effect) to 100 (complete control), read-out: Ryegrass, Italian plant response rating): 90% | pest or weed control at 31 g/ha (Italian ryegrass; Preemergence, 31 g ai/ha, scale 0 to 100, 0 no effect, 100 complete control, read-out: Plant response rating, Ryegrass, Italian): 5% | plant injury at 62 g/ha (wheat, winter; 62 g ai/ha, preemergence, scale 0 (no effect) to 100 (complete control), read-out: Wheat plant response rating): 0% | plant injury at 125 g/ha (wheat, winter; 125 g ai/ha, preemergence, scale 0 (no effect) to 100 (complete control), read-out: Wheat plant response rating): 30% | plant injury at 250 g/ha (wheat, winter; 250 g ai/ha, preemergence, scale 0 (no effect) to 100 (complete control), read-out: Wheat plant response rating): 45% | plant injury at 31 g/ha (wheat, winter; Preemergence, 31 g ai/ha, scale 0 to 100, 0 no effect, 100 complete control, read-out: Plant response rating, Wheat): 0% | pest or weed control at 62 g/ha (galium; 62 g ai/ha, preemergence, scale 0 (no effect) to 100 (complete control), read-out: Galium plant response rating): 100% | pest or weed control at 125 g/ha (galium; 125 g ai/ha, preemergence, scale 0 (no effect) to 100 (complete control), read-out: Galium plant response rating): 100% | pest or weed control at 250 g/ha (galium; 250 g ai/ha, preemergence, scale 0 (no effect) to 100 (complete control), read-out: Galium plant response rating): 100% | pest or weed control at 31 g/ha (galium; Preemergence, 31 g ai/ha, scale 0 to 100, 0 no effect, 100 complete control, read-out: Plant response rating, Galium): 100% | plant injury at 62 g/ha (corn; 62 g ai/ha, preemergence, scale 0 (no effect) to 100 (complete control), read-out: Corn plant response rating): 5% | plant injury at 125 g/ha (corn; 125 g ai/ha, preemergence, scale 0 (no effect) to 100 (complete control), read-out: Corn plant response rating): 60% | plant injury at 250 g/ha (corn; 250 g ai/ha, preemergence, scale 0 (no effect) to 100 (complete control), read-out: Corn plant response rating): 70% | Corn plant response rating (crop injury, 0 = no effect, 100 = complete kill) at 31 g/ha (corn; Preemergence, 31 g ai/ha, scale 0 to 100, 0 no effect, 100 complete control): 5% | pest or weed control at 62 g/ha (giant foxtail; 62 g ai/ha, preemergence, scale 0 (no effect) to 100 (complete control), read-out: Foxtail, Giant plant response rating): 100% | pest or weed control at 125 g/ha (giant foxtail; 125 g ai/ha, preemergence, scale 0 (no effect) to 100 (complete control), read-out: Foxtail, Giant plant response rating): 100% | pest or weed control at 250 g/ha (giant foxtail; 250 g ai/ha, preemergence, scale 0 (no effect) to 100 (complete control), read-out: Foxtail, Giant plant response rating): 100% | pest or weed control at 31 g/ha (giant foxtail; Preemergence, 31 g ai/ha, scale 0 to 100, 0 no effect, 100 complete control, read-out: Plant response rating, Foxtail, Giant): 100% | pest or weed control at 62 g/ha (johnsongrass; 62 g ai/ha, preemergence, scale 0 (no effect) to 100 (complete control), read-out: Johnsongrass plant response rating): 25% | pest or weed control at 125 g/ha (johnsongrass; 125 g ai/ha, preemergence, scale 0 (no effect) to 100 (complete control), read-out: Johnsongrass plant response rating): 90% | pest or weed control at 250 g/ha (johnsongrass; 250 g ai/ha, preemergence, scale 0 (no effect) to 100 (complete control), read-out: Johnsongrass plant response rating): 100% | pest or weed control at 31 g/ha (johnsongrass; Preemergence, 31 g ai/ha, scale 0 to 100, 0 no effect, 100 complete control, read-out: Plant response rating, Johnsongrass): 15% | pest or weed control at 62 g/ha (lambsquarters; 62 g ai/ha, preemergence, scale 0 (no effect) to 100 (complete control), read-out: Lambsquarters plant response rating): 100% | pest or weed control at 125 g/ha (lambsquarters; 125 g ai/ha, preemergence, scale 0 (no effect) to 100 (complete control), read-out: Lambsquarters plant response rating): 100% | pest or weed control at 250 g/ha (lambsquarters; 250 g ai/ha, preemergence, scale 0 (no effect) to 100 (complete control), read-out: Lambsquarters plant response rating): 100% | pest or weed control at 31 g/ha (lambsquarters; Preemergence, 31 g ai/ha, scale 0 to 100, 0 no effect, 100 complete control, read-out: Plant response rating, Lambsquarters): 100% | pest or weed control at 62 g/ha (morningglory; 62 g ai/ha, preemergence, scale 0 (no effect) to 100 (complete control), read-out: Morningglory plant response rating): 95% | pest or weed control at 125 g/ha (morningglory; 125 g ai/ha, preemergence, scale 0 (no effect) to 100 (complete control), read-out: Morningglory plant response rating): 100% | pest or weed control at 250 g/ha (morningglory; 250 g ai/ha, preemergence, scale 0 (no effect) to 100 (complete control), read-out: Morningglory plant response rating): 100% | pest or weed control at 31 g/ha (morningglory; Preemergence, 31 g ai/ha, scale 0 to 100, 0 no effect, 100 complete control, read-out: Plant response rating, Morningglory): 55% | pest or weed control at 62 g/ha (ragweed; 62 g ai/ha, preemergence, scale 0 (no effect) to 100 (complete control), read-out: Ragweed plant response rating): 90% | pest or weed control at 125 g/ha (ragweed; 125 g ai/ha, preemergence, scale 0 (no effect) to 100 (complete control), read-out: Ragweed plant response rating): 95% | pest or weed control at 250 g/ha (ragweed; 250 g ai/ha, preemergence, scale 0 (no effect) to 100 (complete control), read-out: Ragweed plant response rating): 100% | pest or weed control at 31 g/ha (ragweed; Preemergence, 31 g ai/ha, scale 0 to 100, 0 no effect, 100 complete control, read-out: Plant response rating, Ragweed): 90% | plant injury at 62 g/ha (soybean; 62 g ai/ha, preemergence, scale 0 (no effect) to 100 (complete control), read-out: Soybean plant response rating): 85% | plant injury at 125 g/ha (soybean; 125 g ai/ha, preemergence, scale 0 (no effect) to 100 (complete control), read-out: Soybean plant response rating): 90% | plant injury at 250 g/ha (soybean; 250 g ai/ha, preemergence, scale 0 (no effect) to 100 (complete control), read-out: Soybean plant response rating): 90% | plant injury at 31 g/ha (soybean; Preemergence, 31 g ai/ha, scale 0 to 100, 0 no effect, 100 complete control, read-out: Plant response rating, Soybean): 5% | pest or weed control at 62 g/ha (barnyardgrass; 62 g ai/ha, preemergence, scale 0 (no effect) to 100 (complete control), read-out: Barnyardgrass plant response rating): 95% | pest or weed control at 125 g/ha (barnyardgrass; 125 g ai/ha, preemergence, scale 0 (no effect) to 100 (complete control), read-out: Barnyardgrass plant response rating): 100% | pest or weed control at 250 g/ha (barnyardgrass; 250 g ai/ha, preemergence, scale 0 (no effect) to 100 (complete control), read-out: Barnyardgrass plant response rating): 100% | pest or weed control at 31 g/ha (barnyardgrass; Preemergence, 31 g ai/ha, scale 0 to 100, 0 no effect, 100 complete control, read-out: Plant response rating, Barnyardgrass): 50% | plant injury at 62 g/ha (oilseed rape; 62 g ai/ha, preemergence, scale 0 (no effect) to 100 (complete control), read-out: Oilseed Rape plant response rating): 100% | plant injury at 125 g/ha (oilseed rape; 125 g ai/ha, preemergence, scale 0 (no effect) to 100 (complete control), read-out: Oilseed Rape plant response rating): 100% | plant injury at 250 g/ha (oilseed rape; 250 g ai/ha, preemergence, scale 0 (no effect) to 100 (complete control), read-out: Oilseed Rape plant response rating): 100% | plant injury at 31 g/ha (oilseed rape; Preemergence, 31 g ai/ha, scale 0 to 100, 0 no effect, 100 complete control, read-out: Plant response rating, Oilseed Rape): 100% | pest or weed control at 62 g/ha (velvetleaf; 62 g ai/ha, preemergence, scale 0 (no effect) to 100 (complete control), read-out: Velvetleaf plant response rating): 100% | pest or weed control at 125 g/ha (velvetleaf; 125 g ai/ha, preemergence, scale 0 (no effect) to 100 (complete control), read-out: Velvetleaf plant response rating): 100% | pest or weed control at 250 g/ha (velvetleaf; 250 g ai/ha, preemergence, scale 0 (no effect) to 100 (complete control), read-out: Velvetleaf plant response rating): 100% | pest or weed control at 31 g/ha (velvetleaf; Preemergence, 31 g ai/ha, scale 0 to 100, 0 no effect, 100 complete control, read-out: Plant response rating, Velvetleaf): 75%
